From patent US5714467A, “Antibacterial and antimalarial hybrid peptides” (The Rockefeller University, priority 1993, dated 1998)
Where no end group is shown, it is not given here.

System: Sheep Red Cells
Assay: lysis of sheep red blood cells (lysis assay or SRC plate assay)
Type: cell-based
Details: for Lethal concentration, SRC = Sheep Red Cells: Table 3; for concentration lytic to sheep red blood cells: running text
Protocol: These values were obtained by either the lysis assay normally used for melittin or by an adaptation of the antibacterial inhibition zone assay of the above-cited Hultmark et al articles to plates with sheep red cells (SRC). With respect to the latter, sterile agarose plates contained 6 ml of medium With 1% agarose, 0.9% NaCl and 10% SRC suspended in Alsevers solution. A dilution series of peptide was applied in 3 mm wells each loaded with 3 μl of the respective samples. The plates were incubated at 30° C. for 24 h, the zones were recorded and LC values calculated as described in the Hultmark et al articles. Clear zones were recorded after a few hours of incubation and the use of such data gave an LC value of the same order as readings after 24 h. This plate assay is faster and more convenient than the lysis assay normally used for melittin.

[1] = Table 2, no incubation footnote
[2] = Table 2, footnote a: incubation overnight at 30° C. as well as at 37° C.

Molecule | Lethal concentration, SRC = Sheep Red Cells | Lethal concentration, Sheep Red Cells [1] | also measured
CC[C@H](C)[C@H](NC(=O)CNC(=O)[C@@H](NC(=O)[C@H](CCCCN)NC(=O)[C@H](CCCCN)NC(=O)[C@H](Cc1ccccc1)NC(=O)[C@H](CC(C)C)NC(=O)[C@H](CCCCN)NC(=O)[C@H](Cc1c[nH]c2ccccc12)NC(=O)[C@@H](N)CCCCN)[C@@H](C)CC)C(=O)NCC(=O)N[C@@H](C)C(=O)N[C@H](C(=O)N[C@@H](CC(C)C)C(=O)N[C@@H](CCCCN)C(=O)N[C@H](C(=O)N[C@@H](CC(C)C)C(=O)N[C@H](C(=O)N[C@H](C(=O)NCC(=O)N[C@@H](CC(C)C)C(=O)N1CCC[C@H]1C(=O)N[C@@H](C)C(=O)N[C@@H](CC(C)C)C(=O)N[C@H](C(=O)N[C@@H](CO)C(N)=O)[C@@H](C)CC)[C@@H](C)O)[C@@H](C)O)C(C)C)C(C)C [CA(1-8)M(1-18)] | 600 µM |  | 
KWKLFKKIEKVGQNIRDGIGAVLKVL-NH2 [CA(1-17)M(1-9)] | 600 µM |  | 
KWKLFKKLKVLTTGL-NH2 [CA(1-7)M(6-13)] |  | > 500 µM | 
KWKLFKKVLKVLTTG-NH2 [CA(1-7)M(5-12)] |  | > 500 µM | 
KWKLFKKGAVLKVLT-NH2 [CA(1-7)M(3-10)] |  | > 600 µM | 
CC[C@H](C)[C@H](NC(=O)CNC(=O)[C@@H]1CCCN1C(=O)CNC(=O)[C@H](C)NC(=O)[C@H](CCCCN)NC(=O)[C@@H](NC(=O)[C@@H](NC(=O)CNC(=O)[C@H](CC(=O)O)NC(=O)[C@H](CCCNC(=N)N)NC(=O)[C@@H](NC(=O)[C@H](CC(N)=O)NC(=O)[C@H](CCC(N)=O)NC(=O)CNC(=O)[C@@H](NC(=O)[C@H](CCCCN)NC(=O)[C@H](CCC(=O)O)NC(=O)[C@@H](NC(=O)[C@H](CCCCN)NC(=O)[C@H](CCCCN)NC(=O)[C@H](Cc1ccccc1)NC(=O)[C@H](CC(C)C)NC(=O)[C@H](CCCCN)NC(=O)[C@H](Cc1c[nH]c2ccccc12)NC(=O)[C@@H](N)CCCCN)[C@@H](C)CC)C(C)C)[C@@H](C)CC)[C@@H](C)CC)[C@@H](C)CC)C(=O)NCC(=O)N[C@@H](C)C(=O)N[C@H](C(=O)N[C@@H](CC(C)C)C(=O)N[C@@H](CCCCN)C(=O)N[C@H](C(=O)N[C@@H](CC(C)C)C(=O)N[C@H](C(=O)N[C@H](C(=O)NCC(=O)N[C@@H](CC(C)C)C(N)=O)[C@@H](C)O)[C@@H](C)O)C(C)C)C(C)C [CA(1-24)M(1-13)] |  |  | Lethal concentration, Sheep Red Cells [2]: > 200 µM; concentration lytic to sheep red blood cells: ≥ 100 µM
CC[C@H](C)[C@H](NC(=O)CNC(=O)[C@@H](NC(=O)[C@H](CCCCN)NC(=O)[C@H](CCCCN)NC(=O)[C@H](Cc1ccccc1)NC(=O)[C@H](CC(C)C)NC(=O)[C@H](CCCCN)NC(=O)[C@H](Cc1c[nH]c2ccccc12)NC(=O)[C@@H](N)CCCCN)[C@@H](C)CC)C(=O)NCC(=O)N[C@@H](C)C(=O)N[C@H](C(=O)N[C@@H](CC(C)C)C(=O)N[C@@H](CCCCN)C(=O)N[C@H](C(=O)N[C@@H](CC(C)C)C(=O)N[C@H](C(=O)N[C@H](C(=O)NCC(N)=O)[C@@H](C)O)[C@@H](C)O)C(C)C)C(C)C [CA(1-8)M(1-12)] |  | > 600 µM | 
CC[C@H](C)[C@H](NC(=O)[C@H](CC(C)C)NC(=O)[C@H](C)NC(=O)[C@@H]1CCCN1C(=O)[C@H](CC(C)C)NC(=O)CNC(=O)[C@@H](NC(=O)[C@@H](NC(=O)[C@H](CC(C)C)NC(=O)[C@@H](NC(=O)[C@H](CCCCN)NC(=O)[C@H](CC(C)C)NC(=O)[C@@H](NC(=O)[C@H](C)NC(=O)CNC(=O)[C@@H](NC(=O)CNC(=O)[C@H](CCC(=O)O)NC(=O)[C@@H](NC(=O)[C@H](CCCCN)NC(=O)[C@H](CCCCN)NC(=O)[C@H](Cc1ccccc1)NC(=O)[C@H](CC(C)C)NC(=O)[C@H](CCCCN)NC(=O)[C@H](Cc1c[nH]c2ccccc12)NC(=O)[C@@H](N)CCCCN)[C@@H](C)CC)[C@@H](C)CC)C(C)C)C(C)C)[C@@H](C)O)[C@@H](C)O)C(N)=O [CA(1-9)M(1-17)] | 600 µM |  | 
KWKLFKKGIGAVLKV-NH2 [CA(1-7)M(1-8)] |  | > 200 µM | 
KWKLFKKIEKVGQNIRDGGIGAVLKV-NH2 [CA(1-18)M(1-8)] | 600 µM |  | 
KWKLFKKAVLKVLTT-NH2 [CA(1-7)M(4-11)] |  | > 600 µM | 
CC[C@H](C)[C@H](NC(=O)CN)C(=O)NCC(=O)N[C@@H](C)C(=O)N[C@H](C(=O)N[C@@H](CC(C)C)C(=O)N[C@@H](CCCCN)C(=O)N[C@H](C(=O)N[C@@H](CC(C)C)C(=O)N[C@H](C(=O)N[C@H](C(=O)NCC(=O)N[C@@H](CC(C)C)C(=O)N[C@@H](CCCCN)C(=O)N[C@@H](Cc1c[nH]c2ccccc12)C(=O)N[C@@H](CCCCN)C(=O)N[C@@H](CC(C)C)C(=O)N[C@@H](Cc1ccccc1)C(=O)N[C@@H](CCCCN)C(=O)N[C@@H](CCCCN)C(=O)N[C@H](C(=O)N[C@@H](CCC(=O)O)C(=O)N[C@@H](CCCCN)C(=O)N[C@H](C(=O)NCC(=O)N[C@@H](CCC(N)=O)C(N)=O)C(C)C)[C@@H](C)CC)[C@@H](C)O)[C@@H](C)O)C(C)C)C(C)C [M(1-13)CA(1-13)] | 80 µM | 80 µM | 
CC[C@H](C)[C@H](NC(=O)CNC(=O)[C@H](CCC(N)=O)NC(=O)[C@H](CCC(N)=O)NC(=O)[C@H](CCCNC(=N)N)NC(=O)[C@H](CCCCN)NC(=O)[C@H](CCCNC(=N)N)NC(=O)[C@H](CCCCN)NC(=O)[C@@H](NC(=O)[C@H](Cc1c[nH]c2ccccc12)NC(=O)[C@H](CO)NC(=O)[C@@H](NC(=O)[C@@H](N)CC(C)C)[C@@H](C)CC)[C@@H](C)CC)C(=O)NCC(=O)N[C@@H](C)C(=O)N[C@H](C(=O)N[C@@H](CC(C)C)C(=O)N[C@@H](CCCCN)C(=O)N[C@H](C(=O)N[C@@H](CC(C)C)C(=O)N[C@H](C(=O)N[C@H](C(=O)NCC(=O)N[C@@H](CC(C)C)C(N)=O)[C@@H](C)O)[C@@H](C)O)C(C)C)C(C)C [M(16-26)M(1-13)] |  |  | improvement in red cell lysis concentration over natural melittin (240 μM versus 4-6 μM): 40-60 fold; Lethal concentration, Sheep Red Cells [2]: > 200 µM; concentration lytic to sheep red blood cells: > 240 µM
KWKLFKKIGAVLKVL-NH2 [CA(1-7)M(2-9)] |  | > 600 µM | 
KWKLFKKIGIGAVLKVLT-NH2 [CA(1-8)M(1-10)] |  | > 600 µM | 
CC[C@H](C)[C@H](NC(=O)CN)C(=O)NCC(=O)N[C@@H](C)C(=O)N[C@H](C(=O)N[C@@H](CC(C)C)C(=O)N[C@@H](CCCCN)C(=O)N[C@H](C(=O)N[C@@H](CC(C)C)C(=O)N[C@H](C(=O)N[C@H](C(=O)NCC(=O)N[C@@H](CC(C)C)C(=O)N[C@@H](CCCCN)C(=O)N[C@@H](Cc1c[nH]c2ccccc12)C(=O)N[C@@H](CCCCN)C(=O)N[C@@H](CC(C)C)C(=O)N[C@@H](Cc1ccccc1)C(=O)N[C@@H](CCCCN)C(=O)N[C@@H](CCCCN)C(=O)N[C@H](C(=O)N[C@@H](CCC(=O)O)C(=O)N[C@@H](CCCCN)C(=O)N[C@H](C(=O)NCC(=O)N[C@@H](CCC(N)=O)C(=O)N[C@@H](CC(N)=O)C(=O)N[C@H](C(=O)N[C@@H](CCCNC(=N)N)C(=O)N[C@@H](CC(=O)O)C(=O)NCC(=O)N[C@H](C(=O)N[C@H](C(=O)N[C@@H](CCCCN)C(=O)N[C@@H](C)C(N)=O)[C@@H](C)CC)[C@@H](C)CC)[C@@H](C)CC)C(C)C)[C@@H](C)CC)[C@@H](C)O)[C@@H](C)O)C(C)C)C(C)C [M(1-13)CA(1-22)] | 40 µM |  | 
